Assay results published in US20260327214A1, “1,3,4-OXADIAZOLE DERIVATIVE COMPOUNDS AS HISTONE DEACETYLASE 6 INHIBITOR, AND USES THEREOF” (CHONG KUN DANG PHARMACEUTICAL CORP., priority 2022, published 2026).

Key:
[1] = molecular target: T1, human recombinant HDAC1 (Homo sapiens, UniProt Q13547); assay: HDAC1 enzyme activity inhibition test (HDAC Fluorometric Drug Discovery Kit); format: biochemical; details: 30° C., 60 minutes, 10 μM substrate
T1 construct: purchased Enzo Life Science BML-SE456
Description: (§1) The following experiment was conducted to confirm the HDAC6 selectivity of the compound represented by Chemical Formula I of the present invention through the HDAC1 and HDAC6 enzyme activity inhibition test.
(§2) HDAC enzyme activity was measured using HDAC Fluorometric Drug Discovery Kit (BML-AK511, 516) manufactured by Enzo Life Science. For the HDAC1 enzyme activity test, human recombinant HDAC1 (BML-SE456) was used as an enzyme source and Fluor de Lys-®-″SIRT1 (BNL-KI177) was used as a substrate. The 5-fold diluted compound was dispensed in a 96-well plate, 0.3 μg of enzyme and 10 μM substrate were added to each well and reacted at 30° C. for 60 minutes, and Fluor de Lys® Developer II(BML-KI176) was added and reacted for 30 minutes to complete the reaction. Then, the fluorescence value (Ex 360, Em 460) was measured using a multiplate reader (Flexstation 3, Molecular Device). The HDAC6 enzyme was tested using the same protocol as the HDAC1 enzyme activity test method employing human recombinant HDAC6 (382180) from Calbiochem. For the final result, each […] value was calculated using the GraphPad Prism 4.0 program.

[2] = molecular target: T2, human recombinant HDAC6 (Homo sapiens, UniProt Q9UBN7); assay: HDAC6 enzyme activity inhibition test (HDAC Fluorometric Drug Discovery Kit); format: biochemical; details: for HDAC6 selectivity (fold): HDAC6 over HDAC1; for IC50: human recombinant HDAC6, same protocol as HDAC1
T2 construct: purchased Calbiochem 382180
T2 sequence (Q9UBN7 1-1215): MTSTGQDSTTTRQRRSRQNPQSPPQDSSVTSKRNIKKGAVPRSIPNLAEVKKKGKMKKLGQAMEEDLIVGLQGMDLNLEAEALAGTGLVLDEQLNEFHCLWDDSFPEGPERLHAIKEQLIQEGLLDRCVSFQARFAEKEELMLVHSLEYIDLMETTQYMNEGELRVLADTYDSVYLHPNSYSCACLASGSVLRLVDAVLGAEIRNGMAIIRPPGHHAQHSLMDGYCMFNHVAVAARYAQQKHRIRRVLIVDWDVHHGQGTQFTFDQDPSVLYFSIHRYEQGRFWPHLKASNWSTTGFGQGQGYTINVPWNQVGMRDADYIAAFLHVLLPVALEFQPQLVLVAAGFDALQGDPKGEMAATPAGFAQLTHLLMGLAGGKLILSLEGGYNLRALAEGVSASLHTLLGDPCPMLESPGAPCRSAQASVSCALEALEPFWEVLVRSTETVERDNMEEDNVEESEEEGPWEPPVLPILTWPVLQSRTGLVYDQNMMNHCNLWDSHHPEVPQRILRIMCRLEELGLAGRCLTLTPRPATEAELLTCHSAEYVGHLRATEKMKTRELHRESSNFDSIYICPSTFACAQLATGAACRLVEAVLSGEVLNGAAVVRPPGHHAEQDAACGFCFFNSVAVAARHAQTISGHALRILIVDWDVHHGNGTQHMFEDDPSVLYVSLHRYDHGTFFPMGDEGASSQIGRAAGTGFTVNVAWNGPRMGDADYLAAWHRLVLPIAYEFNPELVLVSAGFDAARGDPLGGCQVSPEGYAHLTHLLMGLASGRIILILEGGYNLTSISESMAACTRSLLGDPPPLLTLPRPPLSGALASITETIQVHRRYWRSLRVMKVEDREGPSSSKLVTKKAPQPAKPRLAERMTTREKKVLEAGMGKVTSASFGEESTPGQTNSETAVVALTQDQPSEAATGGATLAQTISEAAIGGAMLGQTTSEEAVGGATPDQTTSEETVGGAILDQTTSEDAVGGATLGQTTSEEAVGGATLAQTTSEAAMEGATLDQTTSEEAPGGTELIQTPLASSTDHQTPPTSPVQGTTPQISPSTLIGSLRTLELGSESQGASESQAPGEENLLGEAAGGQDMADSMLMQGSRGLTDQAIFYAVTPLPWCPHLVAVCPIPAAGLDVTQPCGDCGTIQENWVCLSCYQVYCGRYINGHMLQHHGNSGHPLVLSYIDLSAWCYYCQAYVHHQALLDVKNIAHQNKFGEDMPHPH
Description: as §1, §2

T1 sequence (Q13547 whole entry): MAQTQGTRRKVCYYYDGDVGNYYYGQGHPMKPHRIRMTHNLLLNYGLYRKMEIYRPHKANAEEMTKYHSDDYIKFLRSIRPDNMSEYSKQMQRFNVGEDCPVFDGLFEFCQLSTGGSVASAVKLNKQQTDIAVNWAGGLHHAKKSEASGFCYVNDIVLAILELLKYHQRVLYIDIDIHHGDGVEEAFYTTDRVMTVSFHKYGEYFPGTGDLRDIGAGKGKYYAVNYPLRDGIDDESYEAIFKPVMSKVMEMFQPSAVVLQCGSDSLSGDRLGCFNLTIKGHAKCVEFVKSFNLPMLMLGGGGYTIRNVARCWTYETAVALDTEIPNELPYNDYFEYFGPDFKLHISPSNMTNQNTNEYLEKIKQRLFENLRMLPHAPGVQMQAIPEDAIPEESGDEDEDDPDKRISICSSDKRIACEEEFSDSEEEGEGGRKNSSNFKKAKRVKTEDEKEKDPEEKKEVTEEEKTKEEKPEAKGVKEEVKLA

| SMILES | IC50 [1] [nM] | HDAC6 selectivity (fold) [2] [fold] | IC50 [2] [nM] |
| --- | --- | --- | --- |
| Fc1cc(-c2nnc(C(F)F)o2)cnc1Cn1nc(-c2cccs2)oc1=S [Compound 51, 3-[[5-[5-(difluoromethyl)-1,3,4-oxadiazol-2-yl]-3-fluoro-2-pyridyl]methyl]-5-(2-thienyl)-1,3,4-oxadiazol-2-thione] | > 50000 | 601 | 83.2 |
| O=C1OCC(c2cccs2)=NN1Cc1ccc(-c2nnc(C(F)F)o2)cn1 [Compound 69, 3-[[5-[5-(difluoromethyl)-1,3,4-oxadiazol-2-yl]-2-pyridyl]methyl]-5-(2-thienyl)-6H-1,3,4-oxadiazin-2-one] | > 50000 | 434 | 115 |
| O=c1oc(-c2cccc3[nH]ccc23)nn1Cc1ccc(-c2nnc(C(F)F)o2)cn1 [Compound 34, 3-[[5-[5-(difluoromethyl)-1,3,4-oxadiazol-2-yl]-2-pyridyl]methyl]-5-(1H-indol-4-yl)-1,3,4-oxadiazol-2-one] | > 50000 | 1695 | 29.5 |
| Cn1ccc2cc(-c3nn(Cc4ccc(-c5nnc(C(F)F)o5)cn4)c(=O)o3)cnc21 [Compound 32, 3-[[5-[5-(difluoromethyl)-1,3,4-oxadiazol-2-yl]-2-pyridyl]methyl]-5-(1-methylpyrrolo[2,3-b]pyridin-5-yl)-1,3,4-oxadiazol-2-one] | > 50000 | 774 | 64.6 |
| O=c1sc(-c2cccs2)nn1Cc1ccc(-c2nnc(C(F)F)o2)cn1 [Compound 44, 3-[[5-[5-(difluoromethyl)-1,3,4-oxadiazol-2-yl]2-pyridyl]methyl]-5-(2-thienyl)-1,3,4-thiadiazol-2-one] | > 50000 | 704 | 71 |
| CC(C)N1CCN(c2cc(-c3nn(Cc4ccc(-c5nnc(C(F)F)o5)cn4)c(=S)o3)ccn2)CC1 [Compound 105, 3-[[5-[5-(difluoromethyl)-1,3,4-oxadiazol-2-yl]-2-pyridyl]methyl]-5-[2-(4-isopropylpiperazin-1-yl)-4-pyridyl]-1,3,4-oxadiazol-2-thione] | > 50000 | 734 | 68.1 |
| Fc1cc(-c2nnc(C(F)F)o2)cnc1Cn1nc(-c2cnccn2)oc1=S [Compound 53, 3-[[5-[5-(difluoromethyl)-1,3,4-oxadiazol-2-yl]-3-fluoro-2-pyridyl]methyl]-5-pyrazine-2-yl-1,3,4-oxadiazol-2-thione] | > 50000 | 560 | 89.3 |
| FC(F)c1nnc(-c2ccc(Cn3nc(-c4cccc(CN5CC[C@H](F)C5)c4)oc3=S)nc2)o1 [Compound 90, 3-[[5-[5-(difluoromethyl)-1,3,4-oxadiazol-2-yl]-2-pyridyl]methyl]-5-[3-[[(3S)-3-fluoropyrrolidin-1-yl]methyl]phenyl]-1,3,4-oxadiazol-2-thione] | > 50000 | 835 | 59.9 |
| O=c1sc(-c2ccc(C3CCN(C4COC4)CC3)cc2)nn1Cc1ccc(-c2nnc(C(F)F)o2)cn1 [Compound 56, 3-[[5-[5-(difluoromethyl)-1,3,4-oxadiazol-2-yl]-2-pyridyl]methyl]-5-[4-[1-(oxetane-3-yl)-4-piperidyl]phenyl]-1,3,4-thiadiazol-2-one] | > 50000 | 422 | 118 |
| Fc1cc(-c2nnc(C(F)F)o2)cnc1Cn1nc(-c2ccc3c(c2)CCN(C2CCC2)C3)oc1=S [Compound 137, 5-(2-cyclobutyl-3,4-dihydro-1H-isoquinolin-6-yl)-3-[[5-[5-(difluoromethyl)-1,3,4-oxadiazol-2-yl]-3-fluoro-2-pyridyl]methyl]-1,3,4-oxadiazol-2-thione] | > 50000 | 1075 | 46.5 |
| O=c1oc(-c2ccc3scnc3c2)nn1Cc1ccc(-c2nnc(C(F)F)o2)cn1 [Compound 18, 5-(1,3-benzothiazol-5-yl)-3-[[5-[5-(difluoromethyl)-1,3,4-oxadiazol-2-yl]-2-pyridyl]methyl]-1,3,4-oxadiazol-2-one] | > 50000 | 768 | 65.1 |
| O=c1oc(-c2cccc(C3CCN(C4COC4)CC3)c2F)nn1Cc1ccc(-c2nnc(C(F)F)o2)cn1 [Compound 26, 3-[[5-[5-(difluoromethyl)-1,3,4-oxadiazol-2-yl]-2-pyridyl]methyl]-5-[2-fluoro-3-[1-(oxetan-3-yl)-4-piperidyl]phenyl]-1,3,4-oxadiazol-2-one] | > 50000 | 503 | 99.4 |
| Cc1nc(-c2nn(Cc3ccc(-c4nnc(C(F)F)o4)cn3)c(=S)o2)cs1 [Compound 59, 3-[[5-[5-(difluoromethyl)-1,3,4-oxadiazol-2-yl]-2-pyridyl]methyl]-5-(2-methylthiazol-4-yl)-1,3,4-oxadiazol-2-thione] | > 50000 | 669 | 74.7 |
| CCN(CC)Cc1ccc(-c2nn(Cc3ncc(-c4nnc(C(F)F)o4)cc3F)c(=S)o2)cc1 [Compound 109, 5-[4-(diethylaminomethyl)phenyl]-3-[[5-[5-(difluoromethyl)-1,3,4-oxadiazol-2-yl]-3-fluoro-2-pyridyl]methyl]-1,3,4-oxadiazol-2-thione] | > 50000 | 1020 | 49 |
| CC(C)N1CCC(c2cccc(-c3nn(Cc4ccc(-c5nnc(C(F)F)o5)cn4)c(=O)s3)c2F)CC1 [Compound 57, 3-[[5-[5-(difluoromethyl)-1,3,4-oxadiazol-2-yl]-2-pyridyl]methyl]-5-[2-fluoro-3-(1-isopropyl-4-piperidyl)phenyl]-1,3,4-thiadiazol-2-one] | > 50000 | 954 | 52.4 |
| CN1CCc2cc(-c3nn(Cc4ncc(-c5nnc(C(F)F)o5)cc4F)c(=S)o3)ccc2C1 [Compound 135, 3-[[5-[5-(difluoromethyl)-1,3,4-oxadiazol-2-yl]-3-fluoro-2-pyridyl]methyl]-5-(2-methyl-3,4-dihydro-1H-isoquinolin-6-yl)-1,3,4-oxadiazol-2-thione] | > 50000 | 741 | 67.5 |
| O=c1oc(-c2ccc(N3CCNCC3)cc2)nn1Cc1ccc(-c2nnc(C(F)F)o2)cn1 [Compound 20, 3-[[5-[5-(difluoromethyl)-1,3,4-oxadiazol-2-yl]-2-pyridyl]methyl]-5-(4-piperazin-1-ylphenyl)-1,3,4-oxadiazol-2-one] | > 50000 | 653 | 76.6 |
| O=c1oc(-c2ccsc2)nn1Cc1ccc(-c2nnc(C(F)F)o2)cn1 [Compound 16, 3-[[5-[5-(difluoromethyl)-1,3,4-oxadiazol-2-yl]-2-pyridyl]methyl]-5-(3-thienyl)-1,3,4-oxadiazol-2-one] | > 50000 | 551 | 90.8 |
| Fc1c(-c2nn(Cc3ccc(-c4nnc(C(F)F)o4)cn3)c(=S)o2)cccc1C1CCN(C2CCC2)CC1 [Compound 81, 5-[3-(1-cyclobutyl-4-piperidyl)-2-fluoro-phenyl]-3-[[5-[5-(difluoromethyl)-1,3,4-oxadiazol-2-yl]-2-pyridyl]methyl]-1,3,4-oxadiazol-2-thione] | > 50000 | 576 | 86.8 |
